Measured values reported in patent publication US6743917B2, “Camptothecin analogs and methods of preparation thereof” (University of Pittsburgh, priority 1993, dated 2004).
In brackets after ≈: the same amount, converted by molar mass. Where two headings read alike, the source gives them in different places.

Tests used:
[1] = tested on: HL-60 (human promyelocytic leukemic) cells; experiment: Cytotoxicity assay, HL-60 cells (XTT-microculture tetrazolium assay); format: cell-based; conditions: Homo sapiens; HL-60 cells, 72 hr incubation, XTT; read-out: Inhibition of cancer cell growth IC50, HL-60
Description: The camptothecin derivatives were evaluated for their cytotoxic effects on the growth of HL-60 (human promyelocytic leukemic), 833K (human teratocarcinoma) and DC-3F (hamster lung) cells in vitro. The cells were cultured in an initial density of […]. They were maintained in a 5% CO2 humidified atmosphere at 37° C. in RPMI-1640 media (GIBCO-BRL Grand Island, N.Y.) containing penicillin 100 μ/ml)/streptomycin (100 ^μg/ml) (GIBCO-BRL) and 10% heat inactivated fetal bovine serum. The assay was performed in duplicate in 96-well microplates. The cytotoxicity of the compounds toward HL-60 cells following 72 hr incubation was determined by XTT-microculture tetrazolium assay. Scudiero, D. A., et al., Cancer Res., 48, 4827 (1988), the disclosure of which is incorporated herein by reference. 2′, 3′-bis(-methoxy-4-nitro-5-sulfheny)-5-[(phenylamino)carbonyl]-2H-tetrazolium hydroxide (XTT) was prepared at 1 mg/ml in prewarmed (37° C.) medium without serum. Phenazine methosulfate (PMS) and fresh XTT were mixed together to obtain 0.075 mM PMS-XTT solution (25 ^μl of the stock 5 mM PMS was added per 5 ml of 1 mg/ml XTT). Fifty ^μl of this mixture was added to each well of the cell culture at the end of 72 hr incubation. After incubation at 37° C. for 4 hr., absorbance at 450 nm and 630 nm was measured with a microplate reader (EL340, Bio-Tek Instruments, Inc., Winooski, Vt.).

[2] = tested on: DC-3F (hamster lung) cells; experiment: Cytotoxicity assay, DC-3F cells (sulforhodamine B protein content); format: cell-based; conditions: Mesocricetus auratus, DC3F; DC-3F cells, sulforhodamine B; read-out: Inhibition of cancer cell growth IC50, DC-3F
Description: (§1) Cultures were fixed with trichloroacetic acid and then stained for 30 minutes with 0.4% sulforhodamine B dissolved in 1% acetic acid. Unbound dye was removed by acetic acid washes, and the protein-bound dye was extracted with an unbuffered Tris base [tris(hydroxy-methyl)aminomethan] for determination of absorbance at 570 nm in a 96-well microplate reader. The experiments were carried out in duplicate using five to six concentrations of the drugs tested. Data were analyzed via computer software.

[3] = tested on: Lewis lung carcinoma; experiment: Antitumor activity in vivo, Lewis lung carcinoma; conditions: B6D2F1 mice, intraperitoneously twice daily for five days
Description: (§2) Antitumor activities of camptothecin derivatives were tested in B6D2F1 mice bearing sarcoma-180 or Lewis lung murine solid tumor. For S-180, 3×10^6 cells were innoculated subcutaneously on […]. Antitumor treatment started on day 1 intraperitoneously twice daily for five days. Tumor volumes on day 7 and day 14 were measured. Average tumor volumes were described as the ratio of treated versus untreated control (T/C). The control (treated with DMSO vehicle only) tumor volumes for day 7 and day 14 were 0.11 cm^3 and 0.61 cm^3, respectively. The T/C camptothecin is designated with “+++.” An increment or decrement of 10% as compared to the camptothecin T/C on day 14 at 2 mg/kg dosage is designated with increase or decrease of one “+” unit, respectively.
For Lewis lung carcinoma, tumor cells (1×10^6) were inoculated subcutaneously on day 0 and treatment started on day 1, intraperitoneously twice daily for five days. The grading of effects was as described above.

[4] = tested on: 833K (human teratocarcinoma) cells; experiment: Cytotoxicity assay, 833K cells (sulforhodamine B protein content); format: cell-based; conditions: Homo sapiens; 833K cells, sulforhodamine B; read-out: Inhibition of cancer cell growth IC50, 833K
Description: as §1

[5] = earlier studies; cited from earlier work
[6] = cited from earlier work
[7] = Kinetics of lactone ring opening in whole human blood (HPLC);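 further: hydrolytic opening of the camptothecin lactone ring followed over time by quantitative C18 reversed-phase HPLC in human whole blood at physiological temperature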
[8] = target: human serum albumin (HSA) (Homo sapiens, UniProt P02768); conditions: PBS at pH 7.4; cited from earlier work
[9] = Equilibrium binding to DMPC small unilamellar vesicles (fluorescence anisotropy titration); conditions: for KDMPC overall association constant: PBS buffer at PH 7.4 and 37° C.
[10] = in vitro; conditions: human
[11] = tested on: MDA-MB-435 tumorigenic metastatic human breast cancer cells; experiment: cells; format: cell-based; conditions: Homo sapiens
Description: Cells. […] The cells were exposed to a range of drug concentrations for 72 hr exposure periods and then viability was assessed using a sulphorrhodamine B (SRB) assay. SRB assays were performed using a standard assay.
Sulphorhodamine B (SRB) assay was used. This assay measures the total protein levels in the living cells. Proteins from dead cells are lysed and removed in the washing step before TCA fixation. However, it is possible that cells in the early stage of death still have their membrane integrity and therefore retain the protein contents inside. As a result, the optical density at 490 nm can sometimes be overestimated and the cytotoxicity underestimated. […] The SRB assay is now a well regarded assay and was recently approved by NCI as a standard assay for anticancer drug screening.

[12] = Kinetics of lactone ring opening in PBS buffer (HPLC); format: physicochemical; conditions: for % Lactone at Equilibrium: PBS; for half-life: buffer, pH 7.4
Description: Kinetics of Lactone Ring Opening. […] Mi and Burke (1994), supra.
FIG. 21 summarizes the stability of DB172 in phosphate buffered saline (PBS) buffer, pH 7.4, at physiological temperature. Shown in the figure are plots of lactone fraction as a function of time for DB172 at different concentrations. Drug was added to solution from a concentrated DMSO stock solution such that the volumes of DMSO were very small (less than 0.5%) relative to the volume of water. […] At the more dilute drug concentrations the drug hydrolyzes as previously observed for other camptothecins containing the ^α-hydroxy-^δ-lactone moiety.

[13] = whole human blood, earlier studies; cited from earlier work
[14] = Equilibrium binding to DMPG small unilamellar vesicles (fluorescence anisotropy titration); conditions: for KDMPG overall association constant: PBS buffer at PH 7.4 and 37° C.
[15] = Kinetics of lactone ring opening in PBS containing HSA (HPLC); conditions: HSA (PBS containing 30 mg/ml HSA)
[16] = Blood levels of DB-67 after intrastomach dosing; format: in vivo; conditions: 5 mg/kg intrastomach injection in DMSO; samples at 30 min, 1 hr, 2 hr, 4 hr
Description: To evaluate the blood levels achieved following dosing at 5 mg/kg, four animals were given 0.1 ml intrastomach injections of DB-67 dissolved in DMSO. The stock contained DB67 at a concentration of 1.6 mg/ml. At time points of 30 min, 1 hr, 2 hr, and 4 hr, 1 ml samples of blood were drawn and collected by heart puncturing. The samples were centrifuged for 3 min and stored frozen until analysis was carried out.

[17] = Self-association in aqueous solution (fluorescence intensity with time); format: physicochemical; conditions: lactone drug forms added to solution, time=0
Description: FIG. 22 summarizes the dependence of the fluorescence intensity of DB172 as a function of time and pH. In these experiments DB172 is added to solution as the lactone form. At low pH where the drug remains in the lactone form, the change in intensity with time is the lowest. At pH 10, where the conditions are such that the lactone more readily hydrolyzes and forms carboxylate, a significant change in fluorescence intensity is observed. It appears that a pH 10 nonfluorescent micellular aggregates composed of lactone disassemble and form open-ring carboxylate forms that tend to exist in solution as monomeric fluorescent species.
FIG. 23 explores the fluorescence intensity of DB172 as a function of concentration. Following the addition of low concentration of lactone drug to solution, the change in fluorescence signal is the greatest whereas at high drug concentration (10 ^μM) the fluorescence intensity changes are minimal. It is believed that a low concentration the micellular aggregates of DB172 displaying reduced fluorescence can disassemble and form fluorescent carboxylate species, but at higher drug concentration the equilibrium favors that the agent remains in the aggregated or reduced fluorescence state. […] Once again this decrease in fluorescence that occurs at reduced pH appear to be due to the formation of lactone aggregates of reduced fluorescence quantum yield.
FIGS. 21 through 24 are consistent with the unusual ability of DB172 lactone to self-associate and form micelles at micromolar drug concentrations. The micellular DB172 aggregates display a reduced fluorescence. If conditions allow for hydrolysis to occur such that carboxylate forms, there is an increase in the fluorescence intensity of the sample. FIG. 25 compares the relative change in the fluorescence emission of a sample following addition of lactone drug forms to solution. In these experiments the values for each drug are normalized to a value of 1 at time equals to zero, and the ability of the various analogs to disassociate in the event the drugs are aggregated at time=0 is monitored with time. […]

[18] = Kinetics of lactone ring opening in RBC (HPLC); format: in vitro ADME, human; conditions: RBC
Text: Kinetics of Lactone Ring Opening. […] Mi and Burke (1994), supra. […] Louis, Mo.) was used.

[19] = tested on: glioma cells (U87, A172, SG388, T98G, LN-Z308); experiment: Inhibition of cell proliferation in glioma cell lines; format: cell-based; conditions: several lines of glioma cells (U87, A172, SG388, T98G, LN-Z308), read-out: median effective concentrations, inhibiting cell proliferation
[20] = tested on: sarcoma-180; experiment: Antitumor activity in vivo, sarcoma-180; conditions: B6D2F1 mice, intraperitoneously twice daily for five days, several equivalent doses
Description: as §2

[21] = human
[22] = Whole Blood, physiological temperature
[23] = human plasma, pH 7.4 and 37° C.
[24] = MDA-MB-435 cells, 72 hrs exposure, absence of HSA, read-out: IC50 (w/o HSA)

Chain of human serum albumin (HSA) (P02768 25-609): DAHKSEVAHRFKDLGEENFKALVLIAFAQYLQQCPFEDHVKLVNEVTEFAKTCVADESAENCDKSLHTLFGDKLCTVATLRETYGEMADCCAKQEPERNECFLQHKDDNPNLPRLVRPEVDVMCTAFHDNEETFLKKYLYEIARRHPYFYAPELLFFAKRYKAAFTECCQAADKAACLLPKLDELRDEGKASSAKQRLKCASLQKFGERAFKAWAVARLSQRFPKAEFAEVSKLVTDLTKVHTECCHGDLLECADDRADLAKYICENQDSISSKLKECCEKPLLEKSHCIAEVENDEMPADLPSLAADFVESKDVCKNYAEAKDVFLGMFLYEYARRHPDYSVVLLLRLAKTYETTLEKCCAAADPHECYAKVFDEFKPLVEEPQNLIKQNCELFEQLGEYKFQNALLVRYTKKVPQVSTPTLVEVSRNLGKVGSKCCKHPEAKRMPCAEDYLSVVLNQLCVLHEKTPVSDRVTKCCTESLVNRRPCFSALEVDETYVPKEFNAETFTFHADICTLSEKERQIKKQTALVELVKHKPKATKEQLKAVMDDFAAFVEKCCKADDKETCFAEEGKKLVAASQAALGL

Structure (SMILES)	IC50 [1]	IC50 [2]	IC50 [4]	% Lactone at Equilibrium [7, 22]	KDMPC overall association constant [9]	half-life ([10]; whole blood)	% Lactone at Equilibrium [12]	KDMPG overall association constant [14]	% Lactone at Equilibrium [15]	t1/2 [15]	K value for DMPC, fold greater than camptothecin ([9]; relative to camptothecin)	IC50 [11, 24]	half-life ([10]; blood)	half-life [12]	also measured
CCC1(O)C(=O)OCc2c1cc1n(c2=O)Cc2c-1nc1cc(F)ccc1c2[Si](C)(C)C (stereo in doubt) [Example 7, (20S)-11-fluoro-7-trimethylsilylcamptothecin]	0.75 nM	2 nM	0.92 nM	–	–	–	–	–	–	–	–	–	–	–	similar antitumor effect (tumor volume reduction) to camptothecin at x-fold lower doses [3]: 4 fold
CC[C@@]1(O)C(=O)OCc2c1cc1n(c2=O)Cc2cc3c(N)cccc3nc2-1 [9-aminocamptothecin]	–	–	–	< 0.3%	–	–	–	–	–	–	–	–	–	–	fraction hydrolyzed in PBS solution containing HSA [5]: > 97%; fraction converted to carboxylate in plasma ([6]; plasma): > 99.5%
CC[C@@]1(O)C(=O)OCc2c1cc1n(c2=O)Cc2cc3ccccc3nc2-1 [CPT, (20S)-Camptothecin, reference compound]	5 nM	6 to 9 nM	10 nM	–	100 M⁻¹	21.6 min	17 +/− 2.0%	100 M⁻¹	<0.5%	11.9 ± 0.3 min	–	–	–	–	affinity of HSA for the carboxylate form, fold higher than for the lactone form [8]: 200 fold; IC50 ([11]; MDA-MB-435, 72 h, read-out: IC50 (w/o HSA)): 8 nM; % lactone at equilibrium in human plasma [6, 23]: 0.2%; t1/2 of lactone opening in human plasma [6, 23]: 11 min; % Lactone at Equilibrium ([7]; Whole Blood, physiological temperature, listed as Camptothecin): 5.3 +/− 0.6%; % Lactone at Equilibrium ([7]; Whole Blood, physiological temperature, listed as camptothecin): 5.3%; lactone level at equilibrium in whole blood, fold greater than 9-aminocamptothecin ([7]; relative to 9-aminocamptothecin): approximately 10 fold; t1/2 of lactone in whole blood [13]: 22 min
CC[C@@]1(O)C(=O)OCc2c1cc1n(c2=O)Cc2c-1nc1ccc(O)cc1c2[Si](C)(C)C(C)(C)C [DB-67, (20S)10-Hydroxy-7-tert-butyldimethylsilylcamptothecin]	–	–	–	30%	2700 M⁻¹	130 min	10.2 +/− 0.3%	2800 M⁻¹	10.5 +/− 2.0%	119.0 ± 5.3 min	27 fold	7 nM	–	–	DB67 levels in blood after oral dosage [16]: > 40 ng/mL; times more lipophilic than camptothecin ([9]; relative to camptothecin): 25 times; IC50 ([11]; MDA-MB-435 cells, 72 hrs exposure, presence of 1 mg/ml HSA, read-out: IC50 (w/HSA)): 22 nM; self-association / aggregation state in solution [17]: much more likely to be found in solution as monomeric drug relative to DB172; % Lactone at Equilibrium [18]: 41.4 +/− 0.7%; t1/2 [18]: 51.4 ± 0.5 min; t1/2 [7, 22]: 133.0 ± 15.9 min; % Lactone at Equilibrium ([7]; Whole Blood, physiological temperature, listed as DB 67): 30.5 +/− 1.9%; K value for DMPG, fold greater than camptothecin ([14]; relative to camptothecin): 28 fold
CC[C@@]1(O)C(=O)OCc2c1cc1n(c2=O)Cc2c-1nc1ccc(O)cc1c2CC[Si](C)(C)C [DB-174, (20S)-10-Hydroxy-7-[(2-trimethylsilyl)ethyl]camptothecin]	–	–	–	–	9000 M⁻¹	–	13.7 +/− 0.7%	6600 M⁻¹	–	–	~90 fold	12 nM	40.3 min	29.7 min	EC50 [19]: 0.01 to 0.1 µg/mL (≈ 0.0215 to 0.215 µM)
CC[C@@]1(O)C(=O)OCc2c1cc1n(c2=O)Cc2c-1nc1ccccc1c2[Si](C)(C)C [Example 1, (20S)-7-trimethylsilylcamptothecin]	3.8 nM	4.2 nM	5.6 nM	–	–	–	11.1 +/− 0.1%	–	–	–	–	–	54.6 min	34.6 min	activity against sarcoma 180 compared with camptothecin (tumor volume reduction) [20]: better activity than camptothecin; % Lactone at Equilibrium [21]: 23.7 +/− 0.0%
